How the values were obtained:
CARM1 = molecular target: T1, CARM1 (Homo sapiens, UniProt Q86X55); assay: CARM1 degradation by western blot in MCF7 cells; assay type: cell-based; design: Cell lysates were collected and the CARM1 levels were detected by western blots; endogenous in cells; host or cells: MCF7
T1 sequence (Q86X55 1-608): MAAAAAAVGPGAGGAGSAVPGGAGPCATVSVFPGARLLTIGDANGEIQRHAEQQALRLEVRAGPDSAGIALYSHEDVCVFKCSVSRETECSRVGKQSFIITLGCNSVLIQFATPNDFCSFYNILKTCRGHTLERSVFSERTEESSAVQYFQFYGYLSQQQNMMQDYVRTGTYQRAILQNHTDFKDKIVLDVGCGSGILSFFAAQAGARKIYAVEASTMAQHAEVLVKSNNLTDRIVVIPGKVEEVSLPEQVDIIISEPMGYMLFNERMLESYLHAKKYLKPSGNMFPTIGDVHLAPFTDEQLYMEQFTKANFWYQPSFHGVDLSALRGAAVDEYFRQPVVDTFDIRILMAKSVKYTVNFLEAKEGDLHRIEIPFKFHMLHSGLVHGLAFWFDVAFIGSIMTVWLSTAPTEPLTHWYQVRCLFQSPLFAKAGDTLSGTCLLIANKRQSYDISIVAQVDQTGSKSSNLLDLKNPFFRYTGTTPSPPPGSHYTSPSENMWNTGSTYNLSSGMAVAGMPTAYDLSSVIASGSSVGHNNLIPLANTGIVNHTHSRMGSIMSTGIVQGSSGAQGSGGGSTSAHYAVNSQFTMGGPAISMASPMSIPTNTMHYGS
Method: Based on the structure of TPVC3, CARM1 degraders with stable and flexible alkyl linkages 2a-e were designed and synthesized. Degrader 2b bears the same linker length as TPVC3, while 2a has one less carbon. However, we also changed the hydrolytic labile C═N double bond, which is part of the acylhydrazone motif, in TPVC3 to a C—C bond in compound 2b. This change may influence the required optimal linker length. […] Western blot assays were performed to evaluate the CARM1 degradation activity of the compounds after treating MCF7 cells with these degraders at two concentrations (0.5 and 1.0 μM) for 24 h. […] It has one less carbon atom than 2a in terms of length. […] It has the same linker length as 2d.
The treatment dose and time were determined based on time-course and dose titration experiments (FIG. 4B-4C).
Western Blot Assay. Cells were harvested and washed with Dulbecco's phosphate-buffered saline (PBS), then lysed with 1×RIPA lysis buffer (50 mM Tris pH 7.5, 150 mM NaCl, 1% NP-40, 0.5% sodium deoxycholate, and 0.1% sodium dodecyl sulfate) supplemented with 1 mM phenylmethylsulfonyl fluoride, 10 μg/mL aprotinin, 1 μM leupeptin, and 10 μg/mL pepstatin on ice for 20 min. The supernatant was collected after spinning down at 15000 RPM at 4 degrees Celsius for 10 min. The concentration of whole lysates was quantified using a Bradford assay. 50-75 μg of cell lysates was boiled in 4× Laemmli Loading Dye and boiled at 100 degrees Celsius for 10 min. 25 μg were run in 8% SDS-PAGE gels and transferred to nitrocellulose membranes. Blots were blocked in 5% skim milk in PBST [PBS and 0.1% Tween 20] for 45 min, then incubated with primary antibodies at 4 degrees Celsius overnight. Blots were washed in PBST for 30 min, then incubated with horseradish peroxidase-linked secondary antibodies (Jackson ImmunoResearch) for 1 hr. Afterwards, blots were washed in PBST for 15-30 min, then treated with chemiluminescent ECL reagent and imaged with the ChemiDoc Imaging System (Bio-Rad) or Azure 600 (Azure Biosystems). Expression levels of the indicated proteins were probed by the following antibodies: anti-CARM1, anti-me-BAF155, anti-me-PABP1, anti-PABP1,^7 anti-BAF155 (D7F8S, Cell Signaling Technology), anti-PRMT1 (Bethyl), anti-PRMT6 (D-5, Santa Cruz Biotechnology), anti-β-Actin (ABclonal Technology, Sigma-Aldrich), anti-Hsp90 (H-114, Santa Cruz Biotechnology).

MCF7 cells = assay: Global quantitative proteomic analysis of MCF7 cells by mass spectrometry; assay type: cell-based, Homo sapiens; conditions: 25 nM, 4 h, two-fold cutoff, p-value ≤0.05, 3491 proteins quantified
Method: Sample preparation for global proteomics analysis. Sample preparation is similar to the previous report (Ma et al. “Strategy Based on Deglycosylation, Multiprotease, and Hydrophilic Interaction Chromatography for Large-Scale Profiling of Protein Methylation” Anal. Chem. 2017, 89 (23), 12909-12917). Briefly, treated MCF7 cells were harvested by washing with PBS buffer (Gibco, pH 7.4) and lysed in RIPA buffer supplemented with protease inhibitors for 20 min, then protein concentration was determined using a BCA Protein Assay Kit (Thermo Pierce, Rockford, IL) per manufacturer instructions. […] The concentrations of the peptide mixture were measured by peptide assay (Thermo Fisher Scientific). […]
LC-MS/MS data acquisition. Samples were analyzed on an Orbitrap Fusion Lumos Tribrid mass spectrometer (Thermo Fisher Scientific) coupled to a Dionex UltiMate 3000 UPLC system. […]
Data analysis. Protein identification and quantification by MaxQuant (version 1.5.3.8) based database searching, using the integrated Andromeda search engine with FDR <1% at peptide and protein levels. […] For label-free protein quantification (LFQ), the MaxQuant LFQ algorithm was used to quantitate the MS signals, and the proteins' intensities were represented in LFQintesnit (Schaab et al. “Analysis of High Accuracy, Quantitative Proteomics Data in the MaxQB Database” Mol. Cell. Proteomics 2012, 11 (3), M111.014068). […]

BAF155 me2a [1] = assay: BAF155 me2a level in BT474 cells, western blot; assay type: cell-based; conditions: 10 μM, after 48 h
Text: (§1) FIGS. 7A-7F. […] Cell lysates were collected and CARM1, methyl-BAF155, total BAF155, methyl-PABP1, and total PABP1 levels were detected by Western blot. […] Cell lysates were collected and CARM1, methyl-BAF155, total BAF155 levels were detected by Western blot. […] Cell proliferation rate normalized to day 0 was plotted. […] Migrated cells were stained with 1% crystal violet and the percentage of migrated cells were plotted. Data mean±s.d. ***. P≤0.001.
(§2) Western Blot Assay. Cells were harvested and washed with Dulbecco's phosphate-buffered saline (PBS), then lysed with 1×RIPA lysis buffer (50 mM Tris pH 7.5, 150 mM NaCl, 1% NP-40, 0.5% sodium deoxycholate, and 0.1% sodium dodecyl sulfate) supplemented with 1 mM phenylmethylsulfonyl fluoride, 10 μg/mL aprotinin, 1 μM leupeptin, and 10 μg/mL pepstatin on ice for 20 min. The supernatant was collected after spinning down at 15000 RPM at 4 degrees Celsius for 10 min. The concentration of whole lysates was quantified using a Bradford assay. 50-75 μg of cell lysates was boiled in 4× Laemmli Loading Dye and boiled at 100 degrees Celsius for 10 min. 25 μg were run in 8% SDS-PAGE gels and transferred to nitrocellulose membranes. Blots were blocked in 5% skim milk in PBST [PBS and 0.1% Tween 20] for 45 min, then incubated with primary antibodies at 4 degrees Celsius overnight. […]

BAF155 me2a [2] = assay: BAF155 me2a level in MDA-MB-231 cells, western blot; assay type: cell-based; conditions: 10 μM, after 48 h
Text: as §1, §2

MDA-MB-231 cells = assay: Transwell migration assay, MDA-MB-231 cells; assay type: cell-based; conditions: 10 μM, transwell, 20 h
Method: Transwell Migration Assay. Cells were harvested and washed in serum-free DMEM. The wells of a 24-well plate were filled with 800 μL of DMEM with 10% FBS. Transwell inserts with […] pore size were then added to the wells with DMEM. Cells were resuspended in serum-free DMEM, then 1×10^5 cells in 200 μL were added to the upper chambers. Drug treatments were added to the lower chambers, then incubated for 20 h at 37° C. The cells on the upper surface were removed with cotton swabs. Migratory cells were fixed in 3.7% formaldehyde at room temperature, followed by 100% methanol at −20° C. Fixed cells were stained with 1% crystal violet in 20% methanol for 30 min. The migration area was quantified from five independent fields of view of the lower surface of the membrane under a microscope.

**Q.** Which results are given for `COCCN1CCC(c2cc(CN(C)C(=O)c3cccc(Oc4ccc(OCC(=O)N5CCC(CN6CCC(CN7CCN(CC(=O)N[C@H](C(=O)N8C[C@H](O)C[C@H]8C(=O)N[C@@H](C)c8ccc(-c9scnc9C)cc8)C(C)(C)C)CC7)CC6)CC5)cc4)c3)ccn2)CC1` [Compound 3bN, (2S,4R)-4-hydroxy-1-((S)-2-(2-(4-((1-((1-(2-(4-(3-(((2-(1-(2-methoxyethyl)piperidin-4-yl)pyridin-4-yl)methyl)(methyl)carbamoyl)phenoxy)phenoxy)acetyl)piperidin-4-yl)methyl)piperidin-4-yl)methyl)piperazin-1-yl)acetamido)-3,3-dimethylbutanoyl)-N—((S)-1-(4-(4-methylthiazol-5-yl)phenyl)ethyl)pyrrolidine-2-carboxamide]?
**A.** CARM1 degradation by negative control (CARM1): No CARM1 degradation was observed; Number of significantly changed proteins compared to the DMSO group (MCF7 cells): 45

**Q.** Which “BAF155 me2a level” value (BAF155 me2a [1]) does the source give for `CNCCN1CCC(c2cc(CN(C)C(=O)c3cccc(Oc4ccccc4)c3)ccn2)CC1` [TP-064, reference compound] here?
**A.** decrease of BAF155 me2a level was observed

**Q.** What about the “BAF155 me2a level” value (BAF155 me2a [2]) of the same molecule?
**A.** decrease of BAF155 me2a level was observed

**Q.** What about the Cell migration (MDA-MB-231 cells) of the same molecule?
**A.** inhibited cell migration at a similar level

From US20250222120A1, “SYNTHESIS OF NOVEL SMALL MOLECULE CARM1 DEGRADERS, COMPOUNDS FORMED THEREBY, AND PHARMACEUTICAL COMPOSITIONS CONTAINING THEM” (Wisconsin Alumni Research Foundation, priority 2024, published 2025)
